From US20230339937A1, “CONDENSED RING COMPOUNDS THAT INHIBIT H-PGDS” (SATO PHARMACEUTICAL CO., LTD., priority 2020, published 2023)

Molecular target: T1, Recombinant human H-PGDS (Homo sapiens, UniProt O60760)
T1 construct: made in house; host or cells: E. coli
Experiment: H-PGDS inhibitory activity (prostaglandin D2 production from prostaglandin H2, measured by LC-MS/MS)
Format: biochemical
Conditions: recombinant human H-PGDS 1.0 nM expressed in E. coli; prostaglandin H2 25 μM; preincubated 15 minutes on ice, reacted on ice for 1 minute; concentration that inhibits prostaglandin D2 production by 50%
Outline: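 PGD2 formed from 25 µM prostaglandin H2 during a 1-min on-ice reaction was measured by LC-MS/MS after an FeCl2/citric acid stop. The enzyme was 1.0 nM E. coli-expressed human H-PGDS in Tris-HCl pH 8.0 buffer with MgCl2, reduced glutathione and γ-globulin, preincubated with compound for 15 min on ice. Production was normalised to DMSO controls minus the no-enzyme background.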

T1 sequence (O60760 whole entry): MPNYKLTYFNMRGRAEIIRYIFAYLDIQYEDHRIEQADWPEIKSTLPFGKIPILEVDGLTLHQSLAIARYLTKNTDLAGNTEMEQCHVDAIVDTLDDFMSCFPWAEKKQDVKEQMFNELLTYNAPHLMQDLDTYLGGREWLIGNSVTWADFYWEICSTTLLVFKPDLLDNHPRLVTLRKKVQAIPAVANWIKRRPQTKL

SMILES | IC50
O=C(N[C@H]1CC[C@H](N2CCCC2=O)CC1)c1ccc(-c2nccc3occc23)cc1 [Example 299, 4-(furo[3,2-c]pyridin-4-yl)-N-[trans-4-(2-oxopyrrolidin-1-yl)cyclohexyl]benzamide] | 4 nM
O=C(N[C@H]1CC[C@H](N2CCCCC2=O)CC1)c1ccc(-c2nccc3occc23)cc1 [Example 300, 4-(furo[3,2-c]pyridin-4-yl)-N-[trans-4-(2-oxopiperidin-1-yl)cyclohexyl]benzamide] | 4.7 nM
COCCN[C@H]1CC[C@H](NC(=O)c2ccc(-c3nccc4occc34)cc2)CC1 [Example 301, 4-(furo[3,2-c]pyridin-4-yl)-N-{trans-4-[(2-methoxyethyl)amino]cyclohexyl}benzamide] | 11 nM
CC(N[C@H]1CC[C@H](NC(=O)c2ccc(-c3nccc4occc34)cc2)CC1)C(F)F (stereo partly drawn) [Example 302, N-{trans-4-[(1,1-difluoropropan-2-yl)amino]cyclohexyl}-4-(furo[3,2-c]pyridin-4-yl)benzamide] | 3.2 nM
O=C1CCC(NC(=O)c2ccc(-c3nccc4occc34)cc2)CC1 [Example 303, 4-(furo[3,2-c]pyridin-4-yl)-N-(4-oxocyclohexyl)benzamide] | 2.1 nM
O=C(N[C@H]1CC[C@H](N2CC(F)(F)C2)CC1)c1ccc(-c2nccc3occc23)cc1 [Example 304, N-[trans-4-(3,3-difluoroazetidin-1-yl)cyclohexyl]-4-(furo[3,2-c]pyridin-4-yl)benzamide] | 9.2 nM
O=C(N[C@H]1CC[C@H](N2CCOCC2)CC1)c1ccc(-c2nccc3occc23)cc1 [Example 305, 4-(furo[3,2-c]pyridin-4-yl)-N-(trans-4-morpholinocyclohexyl)benzamide] | 55 nM
O=C(N[C@H]1CC[C@H](N2CCC(F)(F)C2)CC1)c1ccc(-c2nccc3occc23)cc1 [Example 306, N-[trans-4-(3,3-difluoropyrrolidin-1-yl)cyclohexyl]-4-(furo[3,2-c]pyridin-4-yl)benzamide] | 1.8 nM
O=C(NC1CCC(N2CCC(F)(F)CC2)CC1)c1ccc(-c2nccc3occc23)cc1 (stereo not shown) [Example 307, N-[4-(4,4-difluoropiperidin-1-yl)cyclohexyl]-4-(furo[3,2-c]pyridin-4-yl)benzamide] | 2.2 nM
CCC(O)[C@H]1CC[C@H](NC(=O)c2ccc(-c3nccc4occc34)cc2)CC1 (stereo partly drawn) [Example 308, 4-(furo[3,2-c]pyridin-4-yl)-N-[trans-4-(1-hydroxypropyl)cyclohexyl]benzamide] | 1.5 nM
O=C(N[C@H]1CC[C@H](C(O)C(F)(F)F)CC1)c1ccc(-c2nccc3occc23)cc1 (stereo partly drawn) [Example 309, 4-(furo[3,2-c]pyridin-4-yl)-N-[trans-4-(2,2,2-trifluoro-1-hydroxyethyl)cyclohexyl]benzamide] | 1.9 nM
O=C(N[C@H]1CC[C@H](C(F)F)CC1)c1ccc(-c2nccc3occc23)cc1 [Example 310, N-[trans-4-(difluoromethyl)cyclohexyl]-4-(furo[3,2-c]pyridin-4-yl)benzamide] | 2.6 nM
COCCO[C@H]1CC[C@H](NC(=O)c2ccc(-c3nccc4occc34)cc2)CC1 [Example 311, 4-(furo[3,2-c]pyridin-4-yl)-N-[trans-4-(2-methoxyethoxy)cyclohexyl]benzamide] | 2.5 nM
CC(C)(O)[C@H]1CC[C@H](NC(=O)c2ccc(-c3nc(Cl)cc4occc34)cc2)CC1 [Example 312, 4-(6-chlorofuro[3,2-c]pyridin-4-yl)-N-[trans-4-(2-hydroxypropan-2-yl)cyclohexyl]benzamide] | 1.8 nM
C=Cc1cc2occc2c(-c2ccc(C(=O)N[C@H]3CC[C@H](C(C)(C)O)CC3)cc2)n1 [Example 313, N-[trans-4-(2-hydroxypropan-2-yl)cyclohexyl]-4-(6-vinylfuro[3,2-c]pyridin-4-yl)benzamide] | 169 nM
CCc1cc2occc2c(-c2ccc(C(=O)N[C@H]3CC[C@H](C(C)(C)O)CC3)cc2)n1 [Example 314, 4-(6-ethylfuro[3,2-c]pyridin-4-yl)-N-[trans-4-(2-hydroxypropan-2-yl)cyclohexyl]benzamide] | 70 nM
CC(C)(O)[C@H]1CC[C@H](NC(=O)c2ccc(-c3nc(N)cc4occc34)cc2)CC1 [Example 315, 4-(6-aminofuro[3,2-c]pyridin-4-yl)-N-[trans-4-(2-hydroxypropan-2-yl)cyclohexyl]benzamide] | 2.6 nM
CC(C)(O)[C@H]1CC[C@H](NC(=O)c2ccc(-c3nc(F)cc4occc34)cc2)CC1 [Example 316, 4-(6-fluorofuro[3,2-c]pyridin-4-yl)-N-[trans-4-(2-hydroxypropan-2-yl)cyclohexyl]benzamide] | 1.5 nM
CC(C)(O)[C@H]1CC[C@H](NC(=O)c2ccc(-c3nc(C#N)cc4occc34)cc2)CC1 [Example 317, 4-(6-cyanofuro[3,2-c]pyridin-4-yl)-N-[trans-4-(2-hydroxypropan-2-yl)cyclohexyl]benzamide] | 51 nM

SMILES | IC50
CC(C)(O)[C@H]1CC[C@H](NC(=O)c2ccc(-c3nc(C(N)=O)cc4occc34)cc2)CC1 [Example 318, 4-(4-{[trans-4-(2-hydroxypropan-2-yl)cyclohexyl]carbamoyl}phenyl)furo[3,2-c]pyridine-6-carboxamide] | 367 nM
CC(C)(O)[C@H]1CC[C@H](NC(=O)c2ccc(-c3nc(CO)cc4occc34)cc2)CC1 [Example 319, 4-[6-(hydroxymethyl)furo[3,2-c]pyridin-4-yl]-N-[trans-4-(2-hydroxypropan-2-yl)cyclohexyl]benzamide] | 1.6 nM
[2H]C([2H])(O)c1cc2occc2c(-c2ccc(C(=O)N[C@H]3CC[C@H](C(C)(C)O)CC3)cc2)n1 [Example 320, 4-[6-(hydroxymethyl-d2)furo[3,2-c]pyridin-4-yl]-N-[trans-4-(2-hydroxypropan-2-yl)cyclohexyl]benzamide] | 0.9 nM
Cc1cc2occc2c(-c2ccc(C(=O)N[C@H]3CC[C@H](C(C)(C)O)CC3)cc2F)n1 [Example 321, 3-fluoro-N-[trans-4-(2-hydroxypropan-2-yl)cyclohexyl]-4-(6-methylfuro[3,2-c]pyridin-4-yl)benzamide] | 5.5 nM
CC(C)(O)[C@H]1CC[C@H](NC(=O)c2ccc(-c3nc(CO)cc4occc34)c(F)c2)CC1 [Example 322, 3-fluoro-4-[6-(hydroxymethyl)furo[3,2-c]pyridin-4-yl]-N-[trans-4-(2-hydroxypropan-2-yl)cyclohexyl]benzamide] | 3.2 nM
Cn1nnnc1N1CCC(NC(=O)c2ccc(-c3nccc4occc34)c(F)c2)CC1 [Example 323, 3-fluoro-4-(furo[3,2-c]pyridin-4-yl)-N-[1-(1-methyl-1H-tetrazol-5-yl)piperidin-4-yl]benzamide] | 1.1 nM
O=C(NC1CCN(C(=O)C2CC2)CC1)c1ccc(-c2nccc3occc23)c(F)c1 [Example 324, N-[1-(cyclopropanecarbonyl)piperidin-4-yl]-3-fluoro-4-(furo[3,2-c]pyridin-4-yl)benzamide] | 1.3 nM
O=C(N[C@H]1CC[C@H](O)CC1)c1ccc(-c2nccc3occc23)c(F)c1 [Example 325, 3-fluoro-4-(furo[3,2-c]pyridin-4-yl)-N-(trans-4-hydroxycyclohexyl)benzamide] | 2.3 nM
O=C(N[C@H]1CC[C@H](NCC(F)F)CC1)c1ccc(-c2nccc3occc23)c(F)c1 [Example 326, N-{trans-4-[(2,2-difluoroethyl)amino]cyclohexyl}-3-fluoro-4-(furo[3,2-c]pyridin-4-yl)benzamide] | 1.3 nM
O=C(N[C@H]1CC[C@H](C2(O)CC2)CC1)c1ccc(-c2nccc3occc23)c(F)c1 [Example 327, 3-fluoro-4-(furo[3,2-c]pyridin-4-yl)-N-[trans-4-(1-hydroxycyclopropyl)cyclohexyl]benzamide] | 1.1 nM
O=C(N[C@H]1CCN(c2ncccn2)C1)c1ccc(-c2nccc3occc23)c(F)c1 [Example 328, (S)-3-fluoro-4-(furo[3,2-c]pyridin-4-yl)-N-[1-(pyrimidin-2-yl)pyrrolidin-3-yl]benzamide] | 0.74 nM
CC(C)(O)CO[C@H]1CC[C@H](NC(=O)c2ccc(-c3nccc4occc34)c(F)c2)CC1 [Example 329, 3-fluoro-4-(furo[3,2-c]pyridin-4-yl)-N-[trans-4-(2-hydroxy-2-methylpropoxy)cyclohexyl]benzamide] | 2 nM
Cc1cc2occc2c(-c2ccc(C(=O)NC3CCN(c4nnnn4C)CC3)cc2)n1 [Example 330, N-[1-(1-methyl-1H-tetrazol-5-yl)piperidin-4-yl]-4-(6-methylfuro[3,2-c]pyridin-4-yl)benzamide] | 1.7 nM
Cc1cc2occc2c(-c2ccc(C(=O)N[C@H]3CC[C@H](NCC(F)F)CC3)cc2)n1 [Example 331, N-{trans-4-[(2,2-difluoroethyl)amino]cyclohexyl}-4-(6-methylfuro[3,2-c]pyridin-4-yl)benzamide] | 1.8 nM
Cc1cc2occc2c(-c2ccc(C(=O)N[C@H]3CCN(c4ncccn4)C3)cc2)n1 [Example 332, (S)-4-(6-methylfuro[3,2-c]pyridin-4-yl)-N-[1-(pyrimidin-2-yl)pyrrolidin-3-yl]benzamide] | 1.6 nM
Cc1cc2occc2c(-c2ccc(C(=O)N[C@H]3CC[C@H](O)CC3)cc2)n1 [Example 333, N-(trans-4-hydroxycyclohexyl)-4-(6-methylfuro[3,2-c]pyridin-4-yl)benzamide] | 2.3 nM
Cc1cc2occc2c(-c2ccc(C(=O)N[C@H]3CC[C@H](C4(O)CC4)CC3)cc2)n1 [Example 334, N-[trans-4-(1-hydroxycyclopropyl)cyclohexyl]-4-(6-methylfuro[3,2-c]pyridin-4-yl)benzamide] | 2 nM
Cc1cc2occc2c(-c2ccc(C(=O)NC3CCN(C(=O)C4CC4)CC3)cc2)n1 [Example 335, N-[1-(cyclopropanecarbonyl)piperidin-4-yl]-4-(6-methylfuro[3,2-c]pyridin-4-yl)benzamide] | 1.2 nM
